{
  "source": "patent US10875875B2",
  "about": "“Propionic acid derivatives and methods of use thereof” (Aviara Pharmaceuticals, Inc., priority 2017, dated 2020)",
  "data": [
    {"biological_target": "α4β1 (Homo sapiens, UniProt P05556+P13612)", "sequence (P13612 34-1032)": "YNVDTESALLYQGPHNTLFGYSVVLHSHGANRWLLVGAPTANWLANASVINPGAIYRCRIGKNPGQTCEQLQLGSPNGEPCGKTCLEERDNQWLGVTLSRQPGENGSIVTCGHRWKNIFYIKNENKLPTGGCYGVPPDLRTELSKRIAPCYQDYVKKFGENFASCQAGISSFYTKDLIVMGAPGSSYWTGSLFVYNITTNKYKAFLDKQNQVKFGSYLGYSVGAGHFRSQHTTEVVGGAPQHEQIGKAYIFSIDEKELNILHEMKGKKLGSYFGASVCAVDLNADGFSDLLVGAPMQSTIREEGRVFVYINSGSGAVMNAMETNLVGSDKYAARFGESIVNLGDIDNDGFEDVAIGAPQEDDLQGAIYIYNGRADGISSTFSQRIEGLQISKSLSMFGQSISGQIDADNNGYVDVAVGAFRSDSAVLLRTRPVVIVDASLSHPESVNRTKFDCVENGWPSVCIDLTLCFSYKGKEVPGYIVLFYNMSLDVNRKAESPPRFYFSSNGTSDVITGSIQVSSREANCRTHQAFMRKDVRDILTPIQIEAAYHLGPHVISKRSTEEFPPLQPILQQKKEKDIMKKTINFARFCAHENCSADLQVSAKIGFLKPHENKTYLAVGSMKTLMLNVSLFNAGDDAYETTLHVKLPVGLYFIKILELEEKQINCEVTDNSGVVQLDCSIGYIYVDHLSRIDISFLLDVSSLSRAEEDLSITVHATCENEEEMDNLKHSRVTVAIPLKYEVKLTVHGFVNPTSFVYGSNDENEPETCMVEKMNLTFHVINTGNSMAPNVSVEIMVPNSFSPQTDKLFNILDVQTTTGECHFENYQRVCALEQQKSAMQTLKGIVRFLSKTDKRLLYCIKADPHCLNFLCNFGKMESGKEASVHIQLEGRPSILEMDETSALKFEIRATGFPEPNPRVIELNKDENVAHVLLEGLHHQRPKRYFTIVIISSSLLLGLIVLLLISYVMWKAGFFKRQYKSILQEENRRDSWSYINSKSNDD", "sequence (P05556 21-798)": "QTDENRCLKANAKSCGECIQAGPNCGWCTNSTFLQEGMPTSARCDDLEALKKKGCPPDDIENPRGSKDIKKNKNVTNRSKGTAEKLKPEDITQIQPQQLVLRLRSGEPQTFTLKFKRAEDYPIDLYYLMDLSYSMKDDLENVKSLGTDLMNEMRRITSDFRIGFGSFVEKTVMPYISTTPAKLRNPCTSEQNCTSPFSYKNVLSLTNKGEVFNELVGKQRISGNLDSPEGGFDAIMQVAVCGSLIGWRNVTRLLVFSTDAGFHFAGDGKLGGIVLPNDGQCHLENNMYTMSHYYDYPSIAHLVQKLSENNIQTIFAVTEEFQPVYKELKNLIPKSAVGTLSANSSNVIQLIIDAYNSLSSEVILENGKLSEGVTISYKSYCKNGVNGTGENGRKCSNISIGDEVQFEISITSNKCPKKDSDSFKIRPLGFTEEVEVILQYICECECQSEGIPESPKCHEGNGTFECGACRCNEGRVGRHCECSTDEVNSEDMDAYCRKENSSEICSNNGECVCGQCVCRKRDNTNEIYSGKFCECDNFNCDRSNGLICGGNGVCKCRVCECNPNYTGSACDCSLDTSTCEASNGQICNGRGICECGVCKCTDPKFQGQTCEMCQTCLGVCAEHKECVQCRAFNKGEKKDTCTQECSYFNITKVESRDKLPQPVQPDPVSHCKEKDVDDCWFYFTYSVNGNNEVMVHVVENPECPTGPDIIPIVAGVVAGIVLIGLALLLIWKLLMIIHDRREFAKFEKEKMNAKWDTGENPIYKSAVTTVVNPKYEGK", "experiment": "α4β1 integrin inhibition, IC50", "type": "binding", "details": "integrin not named at the place; read-out: IC50", "units": {"IC50": "nM"}, "values": [
      {"smiles": "Cc1cn(C)c(=O)c(NC(=O)N[C@@H](CC(=O)O)c2cccc(-c3ccccc3)c2)c1O", "note": "[1-437, sodium (S)-3-(biphenyl-3-yl)-3-(3-(1,5-dimethyl-4-oxido-2-oxo-1,2-dihydropyridin-3-yl)ureido)propanoate]", "IC50": "< 20"}
    ]},
    {"biological_target": "α4β1 (Homo sapiens, UniProt P05556+P13612)", "experiment": "α4β1 integrin inhibition, IC50", "type": "binding", "details": "read-out: α4β1 IC50", "units": {"IC50": "nM"}, "values": [
      {"smiles": "COc1ccc([C@H](CC(=O)O)NC(=O)Nc2c(O)cc(C)n(C)c2=O)cc1-c1cccc(OC(F)(F)F)c1", "note": "[1-554, sodium (S)-3-(3-(1,6-dimethyl-4-oxido-2-oxo-1,2-dihydropyridin-3-yl)ureido)-3-(6-methoxy-3′-(trifluoromethoxy)biphenyl-3-yl)propanoate]", "IC50": "< 20"},
      {"smiles": "Cc1cccc(C)c1-c1ccc([C@H](CC(=O)O)NC(=O)Nc2c(O)ccn(C)c2=O)s1", "note": "[1-587, sodium (S)-3-(5-(2,6-dimethylphenyl)thiophen-2-yl)-3-(3-(1-methyl-4-oxido-2-oxo-1,2-dihydropyridin-3-yl)ureido)propanoate]", "IC50": "< 20"},
      {"smiles": "Cc1cn(C)c(=O)c(NC(=O)N[C@@H](CC(=O)O)c2cccc(-n3c(C)ccc3C)c2)c1O", "note": "[1-483, sodium (S)-3-(3-(2,5-dimethyl-1H-pyrrol-1-yl)phenyl)-3-(3-(1,5-dimethyl-4-oxido-2-oxo-1,2-dihydropyridin-3-yl)ureido)propanoate]", "IC50": "< 20"},
      {"smiles": "Cc1ccccc1-c1cc([C@H](CC(=O)O)NC(=O)Nc2c(O)ccn(C)c2=O)ccc1F", "note": "[1-612, sodium (S)-3-(6-fluoro-2′-methylbiphenyl-3-yl)-3-(3-(1-methyl-4-oxido-2-oxo-1,2-dihydropyridin-3-yl)ureido)propanoate]", "IC50": "< 20"},
      {"smiles": "Cn1ccc(O)c(NC(=O)N[C@@H](CC(=O)O)c2ccc(-c3cccc(OC(F)(F)F)c3)s2)c1=O", "note": "[1-601, sodium (S)-3-(3-(1-methyl-4-oxido-2-oxo-1,2-dihydropyridin-3-yl)ureido)-3-(5-(3-(trifluoromethoxy)phenyl)thiophen-2-yl)propanoate]", "IC50": "< 20"},
      {"smiles": "Cc1noc(C)c1-c1cccc([C@H](CC(=O)O)NC(=O)Nc2c(O)cc(C)n(C)c2=O)c1", "note": "[1-609, sodium (S)-3-(3-(1,6-dimethyl-4-oxido-2-oxo-1,2-dihydropyridin-3-yl)ureido)-3-(3-(3,5-dimethylisoxazol-4-yl)phenyl)propanoate]", "IC50": "< 20"},
      {"smiles": "COc1ccc([C@H](CC(=O)O)NC(=O)Nc2c(O)ccn(C)c2=O)cc1-c1ccc(F)cc1F", "note": "[1-519, sodium (S)-3-(2′,4′-difluoro-6-methoxybiphenyl-3-yl)-3-(3-(1-methyl-4-oxido-2-oxo-1,2-dihydropyridin-3-yl)ureido)propanoate]", "IC50": "< 20"},
      {"smiles": "COc1cc(-c2ccc(F)cc2F)cc([C@H](CC(=O)O)NC(=O)Nc2c(O)cc(C)n(C)c2=O)c1", "note": "[1-581, sodium (S)-3-(2′,4′-difluoro-5-methoxybiphenyl-3-yl)-3-(3-(1,6-dimethyl-4-oxido-2-oxo-1,2-dihydropyridin-3-yl)ureido)propanoate]", "IC50": "< 20"},
      {"smiles": "Cn1c2c(c(O)c(NC(=O)N[C@@H](CC(=O)O)c3cccc(-c4ccc(F)cc4F)c3)c1=O)CCC2", "note": "[1-513, sodium (S)-3-(2′,4′-difluorobiphenyl-3-yl)-3-(3-(1-methyl-4-oxido-2-oxo-2,5,6,7-tetrahydro-1H-cyclopenta[b]pyridin-3-yl)ureido)propanoate]", "IC50": "< 20"},
      {"smiles": "Cc1cc(O)c(NC(=O)N[C@@H](CC(=O)O)c2cccc(-c3ccc(F)cc3F)c2)c(=O)[nH]1", "note": "[1-557, sodium (S)-3-(2′,4′-difluorobiphenyl-3-yl)-3-(3-(6-methyl-4-oxido-2-oxo-1,2-dihydropyridin-3-yl)ureido)propanoate]", "IC50": "> 200"},
      {"smiles": "Cn1ccc(O)c(NC(=O)N[C@@H](CC(=O)O)c2ccc(-c3ccc(F)cc3F)cc2)c1=O", "note": "[1-621, sodium (S)-3-(2′,4′-difluorobiphenyl-4-yl)-3-(3-(1-methyl-4-oxido-2-oxo-1,2-dihydropyridin-3-yl)ureido)propanoate]", "IC50": "< 20"},
      {"smiles": "Cc1cn(C)c(=O)c(NC(=O)N[C@@H](CC(=O)O)c2cccc(-c3ccccc3)c2C)c1O", "note": "[1-500, sodium (S)-3-(3-(1,5-dimethyl-4-oxido-2-oxo-1,2-dihydropyridin-3-yl)ureido)-3-(2-methylbiphenyl-3-yl)propanoate]", "IC50": "> 200"},
      {"smiles": "Cc1cn(C)c(=O)c(NC(=O)NC(CC(=O)O)c2cccc(-c3cc(Cl)c(F)cc3F)c2)c1O", "note": "(centres unmarked) [1-503, sodium 3-(5′-chloro-2′,4′-difluorobiphenyl-3-yl)-3-(3-(1,5-dimethyl-4-oxido-2-oxo-1,2-dihydropyridin-3-yl)ureido)propanoate]", "IC50": "< 200"},
      {"smiles": "Cn1ccc(O)c(NC(=O)N[C@@H](CC(=O)O)c2ccc(OC(F)(F)F)c(-c3ccccc3)c2)c1=O", "note": "[1-625, sodium (S)-3-(3-(1-methyl-4-oxido-2-oxo-1,2-dihydropyridin-3-yl)ureido)-3-(6-(trifluoromethoxy)biphenyl-3-yl)propanoate]", "IC50": "< 200"},
      {"smiles": "COc1cccc(-c2cccc([C@H](CC(=O)O)NC(=O)Nc3c(O)cc(C)n(C)c3=O)c2)c1", "note": "[1-553, sodium (S)-3-(3-(1,6-dimethyl-4-oxido-2-oxo-1,2-dihydropyridin-3-yl)ureido)-3-(3′-methoxybiphenyl-3-yl)propanoate]", "IC50": "< 20"},
      {"smiles": "Cc1cn(C)c(=O)c(NC(=O)N[C@@H](CC(=O)O)c2cccc(-c3ccc(F)c(F)c3)c2)c1O", "note": "[1-458, sodium (S)-3-(3′,4′-difluorobiphenyl-3-yl)-3-(3-(1,5-dimethyl-4-oxido-2-oxo-1,2-di hydropyridin-3-yl)ureido)propanoate]", "IC50": "< 20"},
      {"smiles": "COc1ccc(OC)c(-c2cccc([C@H](CC(=O)O)NC(=O)Nc3c(O)c(C)cn(C)c3=O)c2)c1", "note": "[1-477, sodium (S)-3-(2′,5′-dimethoxybiphenyl-3-yl)-3-(3-(1,5-dimethyl-4-oxido-2-oxo-1,2-dihydropyridin-3-yl)ureido)propanoate]", "IC50": "< 200"},
      {"smiles": "Cn1ccc(O)c(NC(=O)N[C@@H](CC(=O)O)c2cccc(-n3cccn3)c2)c1=O", "note": "[1-522, sodium (S)-3-(3-(1H-pyrazol-1-yl)phenyl)-3-(3-(1-methyl-4-oxido-2-oxo-1,2-dihydropyridin-3-yl)ureido)propanoate]", "IC50": "< 20"},
      {"smiles": "Cc1cc(C)cc(-c2cccc([C@H](CC(=O)O)NC(=O)Nc3c(O)c(C)cn(C)c3=O)c2)c1", "note": "[1-454, sodium (S)-3-(3-(1,5-dimethyl-4-oxido-2-oxo-1,2-dihydropyridin-3-yl)ureido)-3-(3′,5′-dimethylbiphenyl-3-yl)propanoate]", "IC50": "< 200"},
      {"smiles": "Cc1cccc(C)c1-c1cc(F)cc([C@H](CC(=O)O)NC(=O)Nc2c(O)ccn(C)c2=O)c1", "note": "[1-600, sodium (S)-3-(5-fluoro-2′,6′-dimethylbiphenyl-3-yl)-3-(3-(1-methyl-4-oxido-2-oxo-1,2-dihydropyridin-3-yl)ureido)propanoate]", "IC50": "< 20"},
      {"smiles": "Cc1cn(C)c(=O)c(NC(=O)N[C@@H](CC(=O)O)c2cccc(-c3cc(F)ccc3F)c2)c1O", "note": "[1-447, sodium (S)-3-(2′,5′-difluorobiphenyl-3-yl)-3-(3-(1,5-dimethyl-4-oxido-2-oxo-1,2-di hydropyridin-3-yl)ureido)propanoate]", "IC50": "< 20"},
      {"smiles": "Cc1cn(C)c(=O)c(NC(=O)NC(CC(=O)O)c2cccc(-c3cccc(Cl)c3)c2)c1O", "note": "(centres unmarked) [1-472, sodium 3-(3′-chlorobiphenyl-3-yl)-3-(3-(1,5-dimethyl-4-oxido-2-oxo-1,2-dihydropyridin-3-yl)ureido)propanoate]", "IC50": "< 200"},
      {"smiles": "Cc1noc(C)c1-c1ccc([C@H](CC(=O)O)NC(=O)Nc2c(O)ccn(C)c2=O)s1", "note": "[1-608, sodium (S)-3-(5-(3,5-dimethylisoxazol-4-yl)thiophen-2-yl)-3-(3-(1-methyl-4-oxido-2-oxo-1,2-dihydropyridin-3-yl)ureido)propanoate]", "IC50": "< 20"},
      {"smiles": "O=C(O)C[C@H](NC(=O)Nc1c(O)cc[nH]c1=O)c1cccc(-c2ccc(F)cc2F)c1", "note": "[1-494, sodium (S)-3-(2′,4′-difluorobiphenyl-3-yl)-3-(3-(4-oxido-2-oxo-1,2-dihydropyridin-3-yl)ureido)propanoate]", "IC50": "< 20"},
      {"smiles": "Cn1ccc(O)c(NC(=O)N[C@@H](CC(=O)O)c2cccc(-c3ccc(OC(F)(F)F)cc3)c2)c1=O", "note": "[1-510, sodium (S)-3-(3-(1-methyl-4-oxido-2-oxo-1,2-dihydropyridin-3-yl)ureido)-3-(4′-(trifluoromethoxy)biphenyl-3-yl)propanoate]", "IC50": "< 20"},
      {"smiles": "Cn1ccc(O)c(NC(=O)N[C@@H](CC(=O)O)c2cccc(-n3ncc4ccccc43)c2)c1=O", "note": "[1-518, sodium (S)-3-(3-(1H-indazol-1-yl)phenyl)-3-(3-(1-methyl-4-oxido-2-oxo-1,2-dihydropyridin-3-yl)ureido)propanoate]", "IC50": "< 20"},
      {"smiles": "Cc1cn(C)c(=O)c(NC(=O)N[C@@H](CC(=O)O)c2cccc(-c3ccc(F)cc3F)c2)c1O", "note": "[1-446, sodium (S)-3-(2′,4′-difluorobiphenyl-3-yl)-3-(3-(1,5-dimethyl-4-oxido-2-oxo-1,2-dihydropyridin-3-yl)ureido)propanoate]", "IC50": "< 20"},
      {"smiles": "CCn1cc(C)c(O)c(NC(=O)NC(CC(=O)O)c2cccc(-c3ccc(Cl)c(Cl)c3)c2)c1=O", "note": "(centres unmarked) [1-480, sodium 3-(3′,4′-dichlorobiphenyl-3-yl)-3-(3-(1-ethyl-5-methyl-4-oxido-2-oxo-1,2-dihydropyridin-3-yl)ureido)propanoate]", "IC50": "< 200"},
      {"smiles": "Cc1cn(C)c(=O)c(NC(=O)N[C@@H](CC(=O)O)c2cccc(-c3cccc(Cl)c3)c2)c1O", "note": "[1-499, sodium (S)-3-(3′-chlorobiphenyl-3-yl)-3-(3-(1,5-dimethyl-4-oxido-2-oxo-1,2-dihydropyridin-3-yl)ureido)propanoate]", "IC50": "< 20"},
      {"smiles": "Cc1cccc(C)c1-c1ccc([C@H](CC(=O)O)NC(=O)Nc2c(O)cc(C)n(C)c2=O)s1", "note": "[1-588, sodium (S)-3-(3-(1,6-dimethyl-4-oxido-2-oxo-1,2-dihydropyridin-3-yl)ureido)-3-(5-(2,6-dimethylphenyl)thiophen-2-yl)propanoate]", "IC50": "< 20"},
      {"smiles": "COc1cc(-c2cccc(OC(F)(F)F)c2)cc([C@H](CC(=O)O)NC(=O)Nc2c(O)ccn(C)c2=O)c1", "note": "[1-565, sodium (S)-3-(5-methoxy-3′-(trifluoromethoxy)biphenyl-3-yl)-3-(3-(1-methyl-4-oxido-2-oxo-1,2-dihydropyridin-3-yl)ureido)propanoate]", "IC50": "< 20"}
    ]}
  ]
}
